Here are results for 15 compounds from patent publication US12264156B2, “Compounds and pharmaceutical compositions thereof for the treatment of diseases” (GALAPAGOS NV, priority 2018, dated 2025).

One assay deals with T1, SIK3 (Homo sapiens, UniProt Q9Y2K2).
T1 construct: purchased SignalChem S12-11G-100
In words: ADP-Glo kinase assay, SIK3. The class given is biochemical. The note with it: ADP-Glo SIK kinase assay. An outline of the steps: (§1)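 Wells with 1% DMSO or 10 μM staurosporine (final) define the control window. The kinase reaction with substrate and ATP runs 120 min at RT, followed by ADP-Glo detection: ATP depletion (40 min) and ADP-derived luminescence (30 min).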
For orientation: ADP-Glo first removes unused ATP, then detects ADP through luciferase.

The target in the next assay is T2, SIK1 (Homo sapiens, UniProt P57059).
T2 construct: purchased Carna Biosciences 02-131
T2 sequence (P57059 whole entry): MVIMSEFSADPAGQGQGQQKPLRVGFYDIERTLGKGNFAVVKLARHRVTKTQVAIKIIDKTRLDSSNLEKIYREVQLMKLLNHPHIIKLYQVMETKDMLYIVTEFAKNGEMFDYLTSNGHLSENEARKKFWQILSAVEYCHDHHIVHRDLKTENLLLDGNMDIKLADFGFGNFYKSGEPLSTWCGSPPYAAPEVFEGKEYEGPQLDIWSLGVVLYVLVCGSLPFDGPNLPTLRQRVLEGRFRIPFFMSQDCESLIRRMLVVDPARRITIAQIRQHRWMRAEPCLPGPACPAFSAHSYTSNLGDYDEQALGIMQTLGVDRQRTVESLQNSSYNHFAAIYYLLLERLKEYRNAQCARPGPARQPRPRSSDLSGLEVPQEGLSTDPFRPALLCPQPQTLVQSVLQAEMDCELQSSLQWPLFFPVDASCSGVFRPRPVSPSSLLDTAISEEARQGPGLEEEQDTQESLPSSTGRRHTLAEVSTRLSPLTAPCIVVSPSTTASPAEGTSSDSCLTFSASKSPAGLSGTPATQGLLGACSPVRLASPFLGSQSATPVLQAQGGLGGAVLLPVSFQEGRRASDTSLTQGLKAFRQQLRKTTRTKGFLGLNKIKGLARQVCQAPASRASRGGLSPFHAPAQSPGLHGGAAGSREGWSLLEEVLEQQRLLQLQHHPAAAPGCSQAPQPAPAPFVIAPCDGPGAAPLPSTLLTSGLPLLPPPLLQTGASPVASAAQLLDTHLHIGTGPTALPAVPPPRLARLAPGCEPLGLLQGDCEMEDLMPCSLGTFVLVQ
In words: ADP-Glo kinase assay, SIK1. It is filed as biochemical. The conditions noted are these: ADP-Glo SIK kinase assay. An outline of the steps: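 ADP-Glo, RT throughout. Enz/substrate + ATP, 120 min; ADP-Glo reagent 40 min (ATP depletion); detection reagent 30 min; luminescence read. Neg ctrl 1% DMSO, pos ctrl 10 μM staurosporine, final concs.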

In assay [1] the test system is LPS triggered IL-10 secretion in monocyte-derived macrophages (MdM). As to the kind of experiment: MdM assay: LPS-triggered IL-10 (ELISA). The class given is cell-based, human. The conditions noted are these: LPS 200 ng/mL, supernatant after 2 h, maximal fold change vs LPS only. How it is done:
SIK inhibition inhibits TNFα and increases IL-10 release in LPS triggered monocyte-derived macrophages (MdM) and dendritic […] al. 2012; Sundberg et al. 2014; Ozanne et al. 2015). This assay evaluates illustrative compounds of the invention for their inhibition of LPS-induced TNFα and LPS triggered IL-10 secretion in monocyte-derived macrophages. PBMCs are isolated from human blood samples (buffycoats). The buffy coat is aseptically transferred into a 50 mL Falcon tube, and diluted 1/2 in PBS. Falcon tubes are filled with 20 mL LymphoprepTM, on top of which 25 mL of the buffy coat is carefully added, tubes are centrifuged for 35 min at 400 g in temperature controlled centrifuge, without brake, at 25° C. PBMCs are aspirated from the white interface layer between sample and LymphoprepTM. PBMCs are washed five times in PBS. Cells are resuspended in RPMI 1640 complete medium supplemented with 10% FBS, 1% P/S, and cell density is determined using a hematologic analyzer (Sysmex XS-500i). PBMCs are centrifuged at 300×g for 10 min and resuspended at a density of 1.0*10^7 cells/80 μL Miltenyi buffer (PBS, pH 7.4, 1% FBS, 2 mM EDTA). Starting from this point of the protocol all steps are performed on ice. 20 μL of CD14+ micro-beads are added per 1.0*10^7 cells, the tube is mixed and incubated for 15 min in the fridge at 4° C. Cell suspension volume is adjusted to total volume of 100 mL using Miltenyi buffer, mixed gently and subsequently centrifuged for 10 min at 300×g. Supernantant is discarded and cell pellet is resuspended in 12 mL of Miltenyi buffer. Four LS columns are placed in the MACS Separator (magnet) from Miltenyi Biotec, and are prewet by rinsing with 3 mL of MACS buffer per column. Three mL of cell suspension is added onto the column (max 1*10^8 of labelled cells/column), and columns are subsequently washed 3 times with 3 mL of Miltenyi buffer. The columns are removed from the magnets, and 5 mL of Miltenyi buffer are added to the column to flush out the CD14+ fraction by pushing the plunger into the column. The flushed fractions are collected in a fresh 50 mL Falcon and volume is adjusted to 30 mL using Miltenyi buffer, cells are centrifuged for 10 min at 300×g. The obtained cell pellet is resuspended in 10 mL RPMI w/o FBS, and cell density is determined using a hematologic analyser (Sysmex XS-500i). 100 000 cells are seeded per well of a 96-well plate for differentiation to MdM in RPMI 1640 medium supplemented with 10% FBS, 1% P/S and 100 ng/mL rhM-CSF. On day 5 the medium is refreshed with 100 μL RPMI 1640 medium supplemented with 10% FBS, 1% P/S and 100 ng/mL rhM-CSF. On day 10, MdMs are triggered and compound is added. A compound dilution plate is made in 100% DMSO by 3-fold dilution of 10 mM stock solution. An intermediate dilution plate (10× final concentration) is made by diluting the compound dilution plate 50-fold in RPMI medium. Medium is carefully removed from cell plates using multichannel pipette, and replaced by 80 μL fresh medium. 10 μL of the 10× final concentration compound is added to the cells and incubated for 1 hour at 37° C. before addition of trigger. No trigger conditions/trigger conditions are spiked with equal final DMSO concentrations of 0.2% DMSO. 10 μL of 10×LPS (final conc. 200 ng/mL) solution are added to all wells except for the 'no trigger wells' where 10 μL medium is added. Supernatant is collected after 2 h (IL-10 determination) and after 20 h (TNFα determination) of LPS triggering. […]
On the technique in general: ELISA stands for enzyme-linked immunosorbent assay.

Another assay has as its target T3, SIK2 (Homo sapiens, UniProt Q9H0K1).
T3 construct: purchased ThermoFisher Scientific PV4792
As to the kind of experiment: ADP-Glo kinase assay, SIK2. The class given is biochemical. The conditions noted are these: ADP-Glo SIK kinase assay. An outline of the steps:
as §1

One may read the IC50 as the concentration that inhibits the measured activity by half. A higher IC50 goes with weaker potency in that assay.

Some results are limits rather than exact numbers.

T1 sequence (Q9Y2K2 whole entry): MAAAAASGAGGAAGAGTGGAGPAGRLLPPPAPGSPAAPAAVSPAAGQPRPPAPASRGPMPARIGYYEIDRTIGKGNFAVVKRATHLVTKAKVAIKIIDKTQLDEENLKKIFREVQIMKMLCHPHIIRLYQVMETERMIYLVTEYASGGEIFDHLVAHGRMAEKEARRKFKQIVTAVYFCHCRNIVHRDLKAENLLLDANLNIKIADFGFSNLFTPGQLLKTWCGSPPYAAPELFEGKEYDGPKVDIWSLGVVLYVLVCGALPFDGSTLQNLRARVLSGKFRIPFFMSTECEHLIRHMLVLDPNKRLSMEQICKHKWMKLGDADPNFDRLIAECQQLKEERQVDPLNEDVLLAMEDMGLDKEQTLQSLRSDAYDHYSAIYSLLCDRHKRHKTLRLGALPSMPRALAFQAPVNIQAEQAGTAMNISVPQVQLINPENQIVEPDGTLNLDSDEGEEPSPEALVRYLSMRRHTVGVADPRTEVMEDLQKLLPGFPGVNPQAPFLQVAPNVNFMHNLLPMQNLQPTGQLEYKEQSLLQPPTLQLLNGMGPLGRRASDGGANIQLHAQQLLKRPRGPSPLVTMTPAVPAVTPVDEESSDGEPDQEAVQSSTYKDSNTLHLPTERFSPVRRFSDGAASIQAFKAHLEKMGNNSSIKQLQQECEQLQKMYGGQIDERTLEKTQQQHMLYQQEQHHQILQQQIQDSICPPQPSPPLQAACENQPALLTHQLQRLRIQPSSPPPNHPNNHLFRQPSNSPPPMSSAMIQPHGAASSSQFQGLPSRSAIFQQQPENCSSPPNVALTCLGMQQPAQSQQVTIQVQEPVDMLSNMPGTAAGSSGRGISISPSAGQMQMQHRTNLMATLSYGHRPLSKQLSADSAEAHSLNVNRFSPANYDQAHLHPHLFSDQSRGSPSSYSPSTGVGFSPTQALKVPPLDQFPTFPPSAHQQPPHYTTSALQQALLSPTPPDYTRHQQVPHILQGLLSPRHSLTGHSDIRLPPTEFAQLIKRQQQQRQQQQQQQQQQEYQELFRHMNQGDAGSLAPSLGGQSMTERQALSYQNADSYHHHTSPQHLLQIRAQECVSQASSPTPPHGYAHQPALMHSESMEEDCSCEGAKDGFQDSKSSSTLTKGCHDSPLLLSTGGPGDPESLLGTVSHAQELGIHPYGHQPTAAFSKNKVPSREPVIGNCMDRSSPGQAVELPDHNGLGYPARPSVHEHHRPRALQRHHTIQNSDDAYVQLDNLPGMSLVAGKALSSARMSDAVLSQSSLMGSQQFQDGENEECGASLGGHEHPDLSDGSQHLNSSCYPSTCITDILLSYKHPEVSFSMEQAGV
T3 sequence (Q9H0K1 whole entry): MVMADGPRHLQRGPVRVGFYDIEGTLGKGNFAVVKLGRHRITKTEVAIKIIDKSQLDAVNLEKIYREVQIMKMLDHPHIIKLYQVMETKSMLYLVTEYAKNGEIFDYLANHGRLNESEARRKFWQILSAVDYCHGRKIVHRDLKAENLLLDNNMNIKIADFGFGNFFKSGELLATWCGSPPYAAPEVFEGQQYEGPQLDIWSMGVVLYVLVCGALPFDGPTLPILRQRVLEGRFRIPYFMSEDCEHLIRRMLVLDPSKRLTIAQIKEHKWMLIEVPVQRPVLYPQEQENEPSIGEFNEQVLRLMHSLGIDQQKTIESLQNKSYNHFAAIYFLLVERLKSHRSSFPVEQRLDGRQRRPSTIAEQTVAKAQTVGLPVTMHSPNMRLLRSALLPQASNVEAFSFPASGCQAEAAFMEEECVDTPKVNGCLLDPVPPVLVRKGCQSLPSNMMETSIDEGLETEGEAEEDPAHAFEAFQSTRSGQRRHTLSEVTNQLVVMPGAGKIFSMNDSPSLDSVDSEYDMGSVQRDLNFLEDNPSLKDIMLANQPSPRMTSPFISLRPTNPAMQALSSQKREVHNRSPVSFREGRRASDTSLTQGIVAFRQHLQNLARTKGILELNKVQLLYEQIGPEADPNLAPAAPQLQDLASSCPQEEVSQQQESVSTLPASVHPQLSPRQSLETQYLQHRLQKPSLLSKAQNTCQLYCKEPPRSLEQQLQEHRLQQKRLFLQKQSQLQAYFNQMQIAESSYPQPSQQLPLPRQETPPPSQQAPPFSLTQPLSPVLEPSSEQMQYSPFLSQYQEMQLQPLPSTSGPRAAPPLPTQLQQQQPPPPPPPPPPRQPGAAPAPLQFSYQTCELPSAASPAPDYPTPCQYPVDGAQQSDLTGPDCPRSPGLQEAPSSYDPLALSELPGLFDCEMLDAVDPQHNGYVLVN

Consider `CCNCCOc1ccn2c(-c3cc(OC)c(C(=O)NC4CC4)c(OC(F)F)c3)cnc2c1` [compound 37, N-cyclopropyl-2-(difluoromethoxy)-4-[7-[2-(ethylamino)ethoxy]imidazo[1,2-a]pyridin-3-yl]-6-methoxy-benzamide], for which the IC50 lay within 0.01 to 10 nM at SIK3, 10 to 100 nM at SIK1 and 0.01 to 10 nM against SIK2. For the same compound, the “IL-10 FCmax median” value in assay [1] is “++ (>1.5-4.5)”.

Regarding `COc1cc(-c2cnc3cc(OCC4CN(C)C4)ccn23)cc2c1C(=O)N(CC(F)(F)F)CC2` [compound 39, 8-methoxy-6-[7-[(1-methylazetidin-3-yl)methoxy]imidazo[1,2-a]pyridin-3-yl]-2-(2,2,2-trifluoroethyl)-3,4-dihydro isoquinolin-1-one], the IC50 against SIK3 fell in the range of 0.01 to 10 nM; at SIK1 it was 100 to 500 nM; against SIK2, 0.01 to 10 nM. The “IL-10 FCmax median” value in assay [1] is on record as “++ (>1.5-4.5)”.

On to `COc1cc(-c2cnc3cc(OCCN4CCCCC4)ccn23)cc2c1C(=O)N(CC(F)(F)F)CC2` [compound 40, 8-methoxy-6-[7-[2-(1-piperidyl)ethoxy]imidazo [1,2-a]pyridin-3-yl]-2-(2,2,2-trifluoroethyl)-3,4-dihydroisoquinolin-1-one], for which the IC50 against SIK3 was 0.01 to 10 nM; at SIK1, over 500 nM; on SIK2 it was 0.01 to 10 nM. In assay [1], the “IL-10 FCmax median” value is on record as “++ (>1.5-4.5)”.

Consider `COc1cc(-c2cnc3cc(OCCN4CCS(=O)(=O)CC4)ccn23)cc2c1C(=O)N(CC(F)(F)F)CC2` [compound 41, 6-[7-[2-(1,1-dioxo-1,4-thiazinan-4-yl)ethoxy]imidazo[1,2-a]pyridin-3-yl]-8-methoxy-2-(2,2,2-trifluoroethyl)-3,4-dihydroisoquinolin-1-one], for which the figures for the IC50 on SIK3, against SIK1 and on SIK2 were 0.01 to 10 nM, 100 to 500 nM and 0.01 to 10 nM, respectively. Besides, in assay [1], the “IL-10 FCmax median” value was “++ (>1.5-4.5)”.

As to `COc1cc(-c2cnc3cc(OCc4ccnn4C)ccn23)cc(OC(F)F)c1C(=O)NC1CC1` [compound 44, N-cyclopropyl-2-(difluoromethoxy)-6-methoxy-4-[7-[(2-methylpyrazol-3-yl)methoxy]imidazo[1,2-a]pyridin-3-yl] benzamide], the IC50 was 0.01 to 10 nM against SIK3, 10 to 100 nM at SIK1 and 0.01 to 10 nM against SIK2. In addition, in assay [1], the “IL-10 FCmax median” value is recorded as “+ (≤1.5)”.

With `COc1cc(-c2cnc3cc(OC(C)C(F)(F)F)ccn23)cc(OC(F)F)c1C(=O)NC1CC1` (stereo not drawn) [compound 45, N-cyclopropyl-2-(difluoromethoxy)-6-methoxy-4-[7-(2,2,2-trifluoro-1-methyl-ethoxy)imidazo[1,2-a]pyridin-3-yl]benzamide], the IC50 against SIK3 is 0.01 to 10 nM; against SIK1, 100 to 500 nM; against SIK2, 10 to 100 nM. Moreover, in assay [1], the “IL-10 FCmax median” value is given as “+ (≤1.5)”.

With `COc1cc(-c2cnc3cc(OCCN(C)C)ccn23)cc2c1C(=O)N(CC(F)F)CC2` [compound 54, 2-(2,2-difluoroethyl)-6-[7-[2-(dimethylamino)ethoxy]imidazo [1,2-a]pyridin-3-yl]-8-methoxy-3,4-dihydro isoquinolin-1-one], the IC50 was 10 to 100 nM at SIK3, over 500 nM at SIK1 and 0.01 to 10 nM on SIK2. For the same compound, in assay [1], the “IL-10 FCmax median” value is given as “++ (>1.5-4.5)”.

Consider `COc1cc(-c2cnc3cc(OC[C@H]4CCCN4C)ccn23)cc(OC(F)F)c1C(=O)NC1CC1` [compound 81, N-cyclopropyl-2-(difluoromethoxy)-6-methoxy-4-[7-[[(2R)-1-methylpyrrolidin-2-yl]methoxy]imidazo[1,2-a]pyridin-3-yl]benzamide], for which the IC50 at SIK3 lay within 0.01 to 10 nM; at SIK1, 100 to 500 nM; at SIK2, 0.01 to 10 nM. The “IL-10 FCmax median” value in assay [1] is “++ (>1.5-4.5)”.

For `CCN1CCCCC1COc1ccn2c(-c3cc(OC)c(C(=O)NC4CC4)c(OC(F)F)c3)cnc2c1` (stereo not drawn) [compound 83, N-cyclopropyl-2-(difluoromethoxy)-4-[7-[(1-ethyl-2-piperidyl)methoxy]imidazo [1,2-a]pyridin-3-yl]-6-methoxy-benzamide], the IC50 against SIK3 is 0.01 to 10 nM; against SIK1, 100 to 500 nM; on SIK2, 0.01 to 10 nM. Further, the “IL-10 FCmax median” value in assay [1] is “++ (>1.5-4.5)”.

Turning to `COc1cc(-c2cnc3cc(OCC(C)(C)N)ccn23)cc(OC(F)F)c1C(=O)NC1CC1` [compound 104, 4-[7-(2-amino-2-methyl-propoxy)imidazo[1,2-a]pyridin-3-yl]-N-cyclopropyl-2-(difluoromethoxy)-6-methoxy-benzamide], the IC50 against SIK3 lay in the range of 0.01 to 10 nM; against SIK1, 100 to 500 nM; on SIK2, 0.01 to 10 nM. In addition, the “IL-10 FCmax median” value in assay [1] is listed as “+ (≤1.5)”.

As for `CCN(CC)CCOc1ccn2c(-c3cc(OC)c(C(=O)NC4CC4)c(OC(F)F)c3)cnc2c1` [compound 107, N-cyclopropyl-4-[7-[2-(diethylamino)ethoxy]imidazo[1,2-a]pyridin-3-yl]-2-(difluoromethoxy)-6-methoxy-benzamide], the IC50 against SIK3 lay within 0.01 to 10 nM; against SIK1 it was 100 to 500 nM; at SIK2, 0.01 to 10 nM. For the same compound, the “IL-10 FCmax median” value in assay [1] is “+ (≤1.5)”.

For `COc1cc(-c2cnc3cc(OC[C@H]4CCCCN4C)ccn23)cc(OC(F)F)c1C(=O)NC1CC1` [compound 111, N-cyclopropyl-2-(difluoromethoxy)-6-methoxy-4-[7-[[(2R)-1-methyl-2-piperidyl]methoxy]imidazo[1,2-a]pyridin-3-yl]benzamide], the IC50 on SIK3 fell in the range of 0.01 to 10 nM; against SIK1, 100 to 500 nM; at SIK2 it was 0.01 to 10 nM. Also, the “IL-10 FCmax median” value in assay [1] was “++ (>1.5-4.5)”.

On to `CNCCOc1ccn2c(-c3cc(OC)c(C(=O)NC4CC4)c(OC(F)F)c3)cnc2c1` [compound 117, N-cyclopropyl-2-(difluoromethoxy)-6-methoxy-4-[7-[2-(methylamino)ethoxy]imidazo[1,2-a]pyridin-3-yl]benzamide], for which the IC50 against SIK3 is 0.01 to 10 nM; against SIK1 it was 10 to 100 nM; against SIK2, 0.01 to 10 nM. Also, the “IL-10 FCmax median” value in assay [1] is on record as “++ (>1.5-4.5)”.

Consider `COc1cc(-c2cnc3cc(OCCN)ccn23)cc(OC(F)F)c1C(=O)NC1CC1` [compound 118, 4-[7-(2-aminoethoxy)imidazo[1,2-a]pyridin-3-yl]-N-cyclopropyl-2-(difluoromethoxy)-6-methoxy-benzamide], for which the IC50 was in the range of 0.01 to 10 nM against SIK3, 10 to 100 nM against SIK1 and 0.01 to 10 nM on SIK2. The “IL-10 FCmax median” value in assay [1] is on record as “++ (>1.5-4.5)”.

Take `COc1cc(-c2cnc3cc(OCCN4CCCC4)ccn23)cc2c1C(=O)N(CC(F)(F)F)CC2` [compound 123, 8-methoxy-6-[7-(2-pyrrolidin-1-ylethoxy)imidazo[1,2-a]pyridin-3-yl]-2-(2,2,2-trifluoroethyl)-3,4-dihydroisoquinolin-1-one]: the 50% inhibitory concentration (IC50) at SIK3 is 0.01 to 10 nM; at SIK1, over 500 nM; against SIK2, 0.01 to 10 nM. The “IL-10 FCmax median” value in assay [1] is listed as “++ (>1.5-4.5)”.
